Series [1] has as its system Enterococcus faecalis CCM 4224. In words: Broth microdilution MIC and MBC. The series is classed as cell-based. To be noted: for MIC: CCM4224, E. faecalis CCM 4224; for MBC: CCM4224, E. faecalis CCM 4224, inactivating 99.9% of inoculum. How it is done:
(§1) The antimicrobial activity of caffeic acid and its semi-synthetic derivates was tested against Gram-positive (Staphylococcus aureus CCM 4750, methicillin-resistant; Staphylococcus aureus CCM 4223, methicillin-susceptible; Enterococcus faecalis CCM 4224) and Gram-negative bacteria (Pseudomonas aeruginosa CCM 3955; Escherichia coli CCM 3954; Klebsiella pneumoniae CCM 4415; Proteus mirabilis CCM 7188), and one strain of a yeast Candida albicans (CCM 8267). Microbial strains were purchased from the Czech Collection of Microorganisms, Brno, Czech Republic, and preserved in aliquots in cryoprotective media at −20 °C until the testing. Revival of cryoprotected bacteria took place by overnight cultivation on blood agar and an additional passage on blood agar. Minimal inhibitory concentrations (MIC) against bacteria were detected by broth microdilution test in sterile 96-well U-shaped microtiter plates (Roll s.a.s., Piove di Sacco, Italy) according to the EUCAST recommendations. The test was performed in 100 μL volumes in microtiter plate wells with a final bacterial concentration of 5 × 10^5 CFU·mL^−1. Antifungal activity testing was performed according to the EUCAST-recommended method for the determination of broth dilution minimum inhibitory concentrations of antifungal agents for yeasts, with some modifications. The final yeast concentration in the test wells was 10^4 CFU·mL^−1. The minimal bactericidal/fungicidal concentrations (MBC/MFC) were detected by point-inoculation of 5 μL aliquots from test wells without visible growth on solid agar media free of antimicrobials. Mueller–Hinton broth and agar were used for bacteria, and Sabouraud dextrose broth and agar for fungi (OXOID, Basingstoke, Hampshire, UK). The tested agents were dissolved in 50% ethanol, and serial dilutions were prepared in the test medium to obtain final concentrations ranging from 5000 to 5 μg·mL^−1, which corresponds to 27,753—54 μM for caffeic acid, 7251—14 μM for CAP 6, 6967—14 μM for CAP 8, 6705—13 μM for CAP 10 and 6462—13 μM for CAP 12. Wells with media free of bacteria served as sterility control and wells with bacteria without antimicrobial agents were used as growth control. The MIC was determined to be the lowest concentration of the antimicrobial agent inhibiting the growth of the tested microorganism, and the MBC/MFC was determined to be the lowest concentration, inactivating 99.9% of microbial inoculum. All tests were performed in three independent runs to exclude possible excessive values due to permissible measurement error.
Background: In broth dilution the organism is exposed to a series of concentrations in liquid medium.

In series [2] the test system is Escherichia coli CCM 3954. Kind of series: Broth microdilution MIC and MBC. The series is classed as cell-based. To be noted: for MIC: CCM3954, E. coli CCM 3954; for MBC: CCM3954, E. coli CCM 3954, inactivating 99.9% of inoculum. How it is done:
as §1

The test system of series [3] is Klebsiella pneumoniae CCM 4415. Kind of series: Broth microdilution MIC and MBC. The series is classed as cell-based. To be noted: for MIC: CCM4415, K. pneumoniae CCM 4415; for MBC: CCM4415, K. pneumoniae CCM 4415, inactivating 99.9% of inoculum. How it is done: as §1
In series [4] the test system is Proteus mirabilis CCM 7188. In words: Broth microdilution MIC and MBC. The format is cell-based. To be noted: for MIC: CCM7188, P. mirabilis CCM 7188; for MBC: CCM7188, P. mirabilis CCM 7188, inactivating 99.9% of inoculum. How it is done: as §1
Series [5] has as its system Staphylococcus aureus (MR) CCM 4750. In words: Broth microdilution MIC and MBC. The format is cell-based. The note with it: for MIC: CCM4750, S. aureus methicillin-resistant CCM 4750; for MBC: CCM4750, S. aureus methicillin-resistant CCM 4750, inactivating 99.9% of inoculum. How it is done:
as §1

For series [6], the system named is A. lugdunensis (AcaVNAK02). Kind of series: Amoebicidal activity assay on trophozoites. The format is cell-based. To be noted: Acanthamoeba lugdunensis, 24 h of incubation. How it is done: (§2) The activity against two clinical isolates of free-living amoebae, Acanthamoeba lugdunensis (strain AcaVNAK02) and Acanthamoeba quina (strain AcaVNAK03), both belonging to the T4 genotype, was tested in vitro as previously described. The trophozoites were cultivated in 25 cm^2 tissue culture flasks under axenic conditions in peptone-yeast extract-glucose medium (PYG). The cultivation was carried out under aerobic conditions at laboratory temperature. For the experiments, a fresh 72 h culture was used. Acanthamoebae adherent to flasks represented the trophozoite form and was used in the subsequent assay. Experiments were carried out in 96-well microtiter plates under sterile conditions at 37 °C. Each well was seeded with 100 µL (2 × 10^5 cells mL^−1) of a trophozoite suspension. Then, 100 µL of a freshly prepared medium containing a tested compound at 6 different concentrations was added to all wells, except for the untreated control wells that received 100 µL of the pure medium. Each compound was tested at final concentrations of 500, 250, 125, 62.5, 31.25, and 15.6 µM. The reduction of trophozoites was recorded after 24 h by counting the surviving cells in a Bürker–Türk hemocytometer. The growth control after 24 h (amoebae in inoculum without treatment): A. lugdunensis (AcaVNAK02): 2.5 × 10^5 cells mL^−1, A. quina (AcaVNAK03): 2.1 × 10^5cells/mL comparing to initial inoculum 1 × 10^5 cells mL^−1. The viability of trophozoites was determined by trypan blue exclusion. The EC50 (effective concentration of tested compound that reduces the survival of amoebae by 50%) values were calculated by linear regression analysis using Microsoft Office Excel 2016 (Microsoft Corporation, Redmond, WA, USA) software. All experiments were performed in quadruplicate for each concentration.

For a further series, the system named is A. quina (AcaVNAK03). In words: Amoebicidal activity assay on trophozoites. The format is cell-based. To be noted: Acanthamoeba quina, 24 h of incubation. How it is done: as §2
Series [7] is described as follows: Equilibrium surface tension measurements (Wilhelmy plate). The format is physicochemical. To be noted: 25 °C; for cmc (critical micelle concentration) / γcmc (surface tension at the cmc): aqueous solution; for Acmc (surface area per head group at surface saturation): water/air interface, from Gibbs adsorption isotherm. On the procedure:
The physicochemical properties of the compounds were investigated by the measurements of surface tension of their aqueous solutions. The critical micelle concentration (cmc), the surface tension value at the cmc (γcmc), and the surface area per head group at the surface saturation (Acmc) were determined.
The equilibrium surface tension measurements were carried out according to the procedure described previously. The Wilhelmy plate technique was used for the determination of the solvent surface tension values. Measurements were performed with a Krüss 100 MK2 tensiometer. All samples were prepared by dissolving amphiphilic compounds in deionized water. The stock solutions were prepared in a volumetric flask. The measurements were performed at 25 ± 0.1 °C. The measurements of equilibrium surface tension were taken repeatedly. The values were recorded every 360 s. The measurement was stopped if the difference between the values of two successive measurements was less than 5 × 10^−5 N·m^−1. The breakpoint of the linear parts of the surface tension vs. log c curve was used for the determination of the critical micelle concentration (cmc) and surface tension at the cmc (γcmc). The adsorbed amount of surfactant Γcmc was also determined from surface tension data. The value was calculated using the Gibbs adsorption isotherm: Γcmc=dγ/dlogcT/2.303iRT where γ represents the surface tension (mN/m), c is the concentration of surfactant, i represents the prefactor (CAP have i = 2), R is the gas constant, and T represents the absolute temperature. The slope below the cmc in the surface tension vs. log c plots was used for the determination of the surface excess. The values of area per head group at the water/air interface (Acmc) were obtained from the following equation: Acmc=10^18/NAΓcmc where NA represents the Avogadros constant.

Converted amounts (≈) assume the structure as drawn. Where only a bound is given, the exact number is not on record here.

For orientation: MIC means the lowest concentration found to suppress growth. Read a high MIC as weaker potency. As usually defined, the MBC is the lowest tested concentration that kills the bacteria rather than only halting them. A higher MBC goes with less potent killing. Broadly, the EC50 is the concentration needed to bring the measured effect to its halfway point. Take `O=C(O)C=Cc1ccc(O)c(O)c1` [CA, 3-(3,4-dihydroxyphenyl)-2-propenoic acid, reference compound]: the MIC in series [1] stood at 13900 µM (≈ 2500 µg/mL); in series [2], 6940 µM (≈ 1250 µg/mL); in series [3] it was 6940 µM (≈ 1250 µg/mL); in series [4] it was 6940 µM (≈ 1250 µg/mL); in series [5] it was 6940 µM (≈ 1250 µg/mL). In addition, the MBC in series [1] was 27800 µM (≈ 5000 µg/mL); in series [2], 13900 µM (≈ 2500 µg/mL); in series [3] it was 6940 µM (≈ 1250 µg/mL); in series [4], 6940 µM (≈ 1250 µg/mL); in series [5], 13900 µM (≈ 2500 µg/mL). Moreover, the EC50 in series [6] was more than 100000 µM; in the series on A. quina (AcaVNAK03), 3000 ± 1510 µM.
Turning to `CC(=O)Oc1ccc(/C=C/C(=O)OCCCCCC[P+](c2ccccc2)(c2ccccc2)c2ccccc2)cc1OC(C)=O` [CAP 6, P,P,P-triphenyl-6-{(2E)-3-[3,4-(diacetyloxy)penyl]prop-2-enoyloxy}hexane-1-phosphanium bromide], in series [7], the “cmc (critical micelle concentration)” value is on record as 7.5 × 10^−3 mol·dm^−3. Besides, in series [7], the “γcmc (surface tension at the cmc)” value came out at 36.4 mN·m^−1. For the same compound, the “Acmc (surface area per head group at surface saturation)” value in series [7] is reported as 0.84 nm^2. Moreover, the MIC in series [1] turned out to be 57 µM; in series [2] it was 227 µM; in series [3], 28 µM; in series [4] it was 453 µM; in series [5], 14 µM. The minimal bactericidal concentration (MBC) was found to be 57 µM in series [1]; 227 µM in series [2]; 28 µM in series [3]; 453 µM in series [4]; 14 µM in series [5]. Besides, the EC50 in series [6] turned out to be 74.2 ± 18.4 µM; with A. quina (AcaVNAK03), 44.1 ± 9.2 µM.
With `CC(=O)Oc1ccc(/C=C/C(=O)OCCCCCCCC[P+](c2ccccc2)(c2ccccc2)c2ccccc2)cc1OC(C)=O` [CAP 8, P,P,P-triphenyl-8-{(2E)-3-[3,4-(diacetyloxy)penyl]prop-2-enoyloxy}okctane-1-phosphanium bromide], in series [7], the “cmc (critical micelle concentration)” value is on record as 5.2 × 10^−3 mol·dm^−3. Also, the “γcmc (surface tension at the cmc)” value in series [7] came out at 37.7 mN·m^−1. Also, the “Acmc (surface area per head group at surface saturation)” value in series [7] turned out to be 0.82 nm^2. Moreover, the MIC turned out to be 27 µM in series [1]; 435 µM in series [2]; 27 µM in series [3]; 218 µM in series [4]; 27 µM in series [5]. Moreover, the MBC in series [1] stood at 27 µM; in series [2], 435 µM; in series [3], 27 µM; in series [4] it was 435 µM; in series [5], 27 µM. The values for the EC50 (in series [6]; with A. quina (AcaVNAK03)) were 99.8 ± 23.7 µM and 94.1 ± 14.5 µM, respectively.
For `CC(=O)Oc1ccc(/C=C/C(=O)OCCCCCCCCCC[P+](c2ccccc2)(c2ccccc2)c2ccccc2)cc1OC(C)=O` [CAP 10, P,P,P-triphenyl-10-{(2E)-3-[3,4-(diacetyloxy)penyl]prop-2-enoyloxy}decane-1-phosphanium bromide], the “cmc (critical micelle concentration)” value in series [7] is reported as 2.2 × 10^−3 mol·dm^−3. In addition, the “γcmc (surface tension at the cmc)” value in series [7] was 37.1 mN·m^−1. For the same compound, the “Acmc (surface area per head group at surface saturation)” value in series [7] came to 1.02 nm^2. Besides, the MIC is 26 µM in series [1]; 419 µM in series [2]; 105 µM in series [3]; 210 µM in series [4]; 13 µM in series [5]. Moreover, the MBC was found to be 26 µM in series [1]; 419 µM in series [2]; 105 µM in series [3]; 419 µM in series [4]; 26 µM in series [5]. In addition, the results for the EC50 (in series [6]; in the series on A. quina (AcaVNAK03)) were 834 ± 303 µM and 291 ± 36.8 µM, respectively.
Turning to `CC(=O)Oc1ccc(/C=C/C(=O)OCCCCCCCCCCCC[P+](c2ccccc2)(c2ccccc2)c2ccccc2)cc1OC(C)=O` [CAP 12, P,P,P-triphenyl-12-{(2E)-3-[3,4-(diacetyloxy)penyl]prop-2-enoyloxy}dodecane-1-phosphanium bromide], in series [7], the “cmc (critical micelle concentration)” value is given as 1.0 × 10^−3 mol·dm^−3. Besides, in series [7], the “γcmc (surface tension at the cmc)” value was found to be 39.4 mN·m^−1. In addition, the “Acmc (surface area per head group at surface saturation)” value in series [7] was found to be 1.33 nm^2. Also, the MIC in series [1] came to 25 µM; in series [2], 808 µM; in series [3] it was 404 µM; in series [4], 404 µM; in series [5], 25 µM. The MBC in series [1] worked out at 25 µM; in series [2], 808 µM; in series [3], 404 µM; in series [4], 404 µM; in series [5] it was 25 µM. In addition, the results for the EC50 (in series [6]; in the series on A. quina (AcaVNAK03)) were 3120 ± 941 µM and 3320 ± 2060 µM, respectively.
